# Target: T1, DCAF1 WD40 domain (residues 1077-1390) (Homo sapiens, UniProt Q9Y4B6)
# T1 construct: DCAF1 WD40 domain (residues 1077-1390)
# Assay: DCAF1 binding assay by SPR (Biacore 8K+), DCAF1-3 KD
# Conditions: 25 °C, read-out: DCAF1-3 SPR (KD)
# T1 sequence (Q9Y4B6 1077-1390): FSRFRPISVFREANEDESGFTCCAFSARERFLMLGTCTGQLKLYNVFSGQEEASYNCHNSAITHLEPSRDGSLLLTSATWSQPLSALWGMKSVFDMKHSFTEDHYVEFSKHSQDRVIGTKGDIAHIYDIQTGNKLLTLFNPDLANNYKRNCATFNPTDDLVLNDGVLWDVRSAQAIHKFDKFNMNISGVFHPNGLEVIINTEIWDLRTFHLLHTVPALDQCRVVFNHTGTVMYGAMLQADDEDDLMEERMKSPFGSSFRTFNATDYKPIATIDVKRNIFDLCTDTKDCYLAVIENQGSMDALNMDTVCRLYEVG
row,Structure (SMILES),Kd
1,OCCCc1ccc(N2CCC[C@@H](Nc3cc(N4CCOCC4)ccn3)C2)cc1 [I-873],> 200 µM
2,c1ccc2c(c1)nc(N1CCC[C@@H](Nc3cc(N4CCOCC4)ccn3)C1)c1nnnn12 [I-423],> 200 µM
3,NC(=O)C[C@](CC(=O)O)(NC(=O)c1c[nH]nc1-c1ccccc1F)c1cccc(Cl)c1 [I-295],> 200 µM
4,CS(=O)(=O)N(c1cc(N2CCOCC2)ccn1)[C@@H]1CCCN(c2cccc(F)c2)C1 [I-304],> 200 µM
5,Fc1cccc(N2CCC[C@@H]3[C@H]2CCCN3c2cc(N3CCOCC3)ccn2)c1 [I-190],> 200 µM
6,N#Cc1ncccc1N1CCC[C@@H](Nc2cc(N3CCOCC3)ccn2)C1 [I-424],> 200 µM
7,CS(=O)(=O)CCc1ccc(F)c(-c2[nH]ncc2C(=O)N[C@H](CC(N)=O)c2cccc(Cl)c2)c1 [I-531],> 200 µM
8,c1ccc(Cc2ccc(N3CCC[C@@H](Nc4cc(N5CCOCC5)ccn4)C3)nc2)cc1 [I-435],> 200 µM
9,NC(=O)C[C@H](NC(=O)c1cnn(C(=O)c2ccccc2)c1-c1ccccc1F)c1cccc(Cl)c1 [I-173],> 200 µM
10,COc1ccc(N2CCC[C@@H]3[C@H]2CCN3c2cc(N3CC4CC(C4)C3)ccn2)cc1F [I-722],> 200 µM
11,Fc1cccc(N2CCC[C@@H](n3cnc4c(N5CCOCC5)ccnc43)C2)c1 [I-50],> 200 µM
12,Fc1cccc(N2CCC[C@@H](Nc3cc(C4=CCOCC4)[nH]n3)C2)c1 [I-609],> 200 µM
13,O=C(N[C@H](c1cccc(Cl)c1)[C@H]1CCCNC1=O)c1c[nH]nc1-c1ccccc1F [I-194],> 200 µM
14,O=C(N[C@H](c1cccc(Cl)c1)[C@@H]1CCNC1=O)c1c[nH]nc1-c1ccccc1F [I-193],> 200 µM
15,c1ccc2c(N3CCC[C@@H](Nc4cc(N5CCOCC5)ccn4)C3)ncnc2c1 [I-67],> 200 µM
16,N#Cc1cnc(N2CCOCC2)cc1N[C@@H]1CCCN(c2cccc(F)c2)C1 [I-408],> 200 µM
17,C=CC(=O)NCCCN1CCN(c2ccnc(N[C@@H]3CCCN(c4cccc(F)c4)C3)c2)CC1 [I-621],100 to 200 µM
18,Fc1cccc(N2CCC[C@@H](Nc3ncc(N4CCOCC4)s3)C2)c1 [I-328],> 200 µM
19,Cc1n[nH]c(C(F)(F)F)c1C(=O)N[C@@H](CC(N)=O)c1ccccc1 [I-837],> 200 µM
20,NC(=O)C[C@H](NC(=O)c1cn[nH]c1-c1ncccc1F)c1cccc(Cl)c1 [I-357],> 200 µM
21,c1cnc2c(N3CCC[C@@H](Nc4cc(N5CCOCC5)ccn4)C3)nccc2c1 [I-64],100 to 200 µM
22,c1cnc2cc(N3CCC[C@@H](Nc4cc(N5CCOCC5)ncn4)C3)ccc2c1 [I-403],> 200 µM
23,NC(=O)C[C@H](NC(=O)c1cn[nH]c1N1CCCCC1)c1cccc(Cl)c1 [I-159],> 200 µM
24,NC(=O)C[C@H](NC(=O)c1n[nH]c2c1CNCC2)c1cccc(Cl)c1 [I-298],> 200 µM
25,Oc1ccc(N2CCC[C@@H](Nc3cc(N4CCOCC4)ncn3)C2)cc1 [I-14],100 to 200 µM
26,O=C1C[C@@H]([C@@H](NC(=O)c2cn[nH]c2-c2ccccc2F)c2cccc(Cl)c2)CN1 [I-560],> 200 µM
27,NC(=O)C[C@H](NC(=O)c1c[nH]nc1-c1cc(C(=O)O)ccc1F)c1cccc(Cl)c1 [I-269],> 200 µM

row,Structure (SMILES),Kd
1,C=CC(=O)NCCC1CCN(c2ccnc(N3CC[C@@H]4[C@H]3CCCN4c3cccc(F)c3)c2)CC1 [I-666],> 200 µM
2,c1ccc2c(N3CCC[C@@H](Nc4cc(N5CCOCC5)ncn4)C3)cccc2c1 [I-388],> 200 µM
3,NC(=O)C[C@H](NC(=O)c1c[nH]nc1-c1cc(-c2nnn[nH]2)ccc1F)c1cccc(Cl)c1 [I-293],> 200 µM
4,NC(=O)C[C@H](NC(=O)c1cn[nH]c1-c1ccccc1F)c1ccncc1 [I-341],> 200 µM
5,C=CC(=O)Nc1ccc(-c2[nH]ncc2C(=O)N[C@H](CC(N)=O)c2cccc(Cl)c2)cc1 [I-536],> 200 µM
6,O=C(O)CN(c1cc(N2CCOCC2)ccn1)[C@@H]1CCCN(c2cccc(F)c2)C1 [I-286],> 200 µM
7,COc1ccc(F)c(-c2[nH]ncc2C(=O)N[C@@H](CC(N)=O)c2cccc(Cl)c2)c1 [I-249],> 200 µM
8,Fc1cccc(N2CCC[C@H](Nc3cc(N4CCOCC4)ncn3)C2)c1 [I-313],> 200 µM
9,NC(=O)C[C@H](NC(=O)c1n[nH]nc1-c1ccccc1F)c1cccc(Cl)c1 [I-200],> 200 µM
10,c1ccc2ncc(N3CCC[C@@H](Nc4nccc(N5CCOCC5)n4)C3)cc2c1 [I-46],> 200 µM
11,c1cc(N2CCOCC2)cc(N[C@@H]2CCCN(c3ccc4c(c3)CCC4)C2)n1 [I-508],100 to 200 µM
12,O=C1NCCc2c1cccc2N1CCC[C@@H](Nc2cc(N3CCOCC3)ccn2)C1 [I-778],> 200 µM
13,Oc1cnc(N[C@@H]2CCCN(c3cccc(F)c3)C2)cc1N1CCOCC1 [I-409],> 200 µM
14,Fc1cccc(N2CCC[C@@H](Nc3cc(C4CCCCC4)ccn3)C2)c1 [I-91],> 200 µM
15,O=C1CC(C(NC(=O)c2cn[nH]c2-c2ccccc2F)c2cccc(Cl)c2)CN1 (centres unmarked) [I-561],> 200 µM
16,NC(=O)C[C@H](C(=O)Nc1cnn(Cc2ccccc2)c1-c1ccccc1F)c1cccc(Cl)c1 [I-153],> 200 µM
17,COCCOCC[C@@H]1CCCN(c2ccnc(N3CC[C@H]4[C@@H]3CCCN4c3cccc(F)c3)c2)C1 [I-714],10 to 100 µM
18,COCCN1CCN(c2ccnc(N[C@@H]3CCCN(c4cccc(F)c4)C3)n2)CC1 [I-320],10 to 100 µM
19,Cc1cccc(C(CC(N)=O)NC(=O)c2cn[nH]c2-c2ccccc2F)c1 (centres unmarked) [I-331],> 200 µM
20,CS(=O)(=O)CCc1ccc(F)c(-c2[nH]ncc2C(=O)N[C@@H](CC(N)=O)c2cccc(Cl)c2)c1 [I-247],> 200 µM
21,C=CC(=O)N1CCC(c2n[nH]cc2C(=O)N[C@@H](CC(N)=O)c2cccc(Cl)c2)CC1 [I-452],> 200 µM
22,CC(=O)Nc1ccc(N2CCC[C@H]3[C@@H]2CCN3c2cc(N3CCCCC3)ccn2)cc1F [I-747],> 200 µM
23,Cc1ccc(CCCOCCOCCOCCOCCOCCNC(=O)C[C@@H]2N=C(c3ccc(Cl)cc3)c3c(sc(C)c3C)-n3c(C)nnc32)c(F)c1-c1c(C(=O)N[C@@H](CC(N)=O)c2cccc(Cl)c2)c[nH]c1C#N [I-1052],10 to 100 µM
24,Fc1cccc(N2CCCC3(C2)CN(c2cc(N4CCOCC4)ccn2)C3)c1 [I-221],> 200 µM
25,Fc1cccc(N2CCC[C@@H](Nc3cc(N4C[C@H]5CCC4CO5)ncn3)C2)c1 [I-309],> 200 µM
26,COCCOCC[C@H]1CCCN(c2ccnc(N3CC[C@@H]4[C@H]3CCCN4c3cccc(F)c3)c2)C1 [I-713],10 to 100 µM

# Results, then the compound that gave them:
row,Kd,Structure (SMILES)
1,< 10 µM,Cc1cccc(F)c1-c1c(C(=O)N[C@@H](CC(N)=O)c2cccc(Cl)c2)c[nH]c1-c1ccccn1 [I-656]
2,10 to 100 µM,CCCCCCC[C@@H]1CCCN(c2ccnc(N3CC[C@H]4[C@@H]3CCCN4c3cccc(F)c3)c2)C1 [I-728]
3,10 to 100 µM,OCCC[C@H]1C[C@@H]2[C@@H](CCCN2c2cccc(F)c2)N1c1cc(N2CCCCC2)ccn1 [I-825]
4,10 to 100 µM,NC(=O)C[C@H](NC(=O)c1cn[nH]c1-c1ccccc1F)c1ccccc1Br [I-581]
5,10 to 100 µM,O[C@H]1CC[C@@H](Nc2cc(N3CCCCC3)ccn2)C[C@@H]1c1ccccc1 [I-984]
6,10 to 100 µM,NC[C@H]1C[C@H](Nc2cc(N3CCCCC3)ccn2)CN(c2cccc(F)c2)C1 [I-1039]
7,< 10 µM,CC1CC=C(c2[nH]ncc2C(=O)N[C@@H](CC(N)=O)c2cccc(Cl)c2)CC1 (some centres unmarked) [I-611]
8,10 to 100 µM,C=CC(=O)NC1CCC(c2[nH]ncc2C(=O)N[C@H](CC(N)=O)c2cccc(Cl)c2)CC1 (some centres unmarked) [I-537]
9,10 to 100 µM,Fc1cccc(N2CCC[C@@H]3[C@H]2CCN3c2cc(N3CCOCC3)ccn2)c1 [I-189]
10,10 to 100 µM,N#Cc1ccc(N2CCOCC2)cc1N[C@@H]1CCCN(c2cccc(F)c2)C1 [I-71]
11,10 to 100 µM,Fc1cccc(N2CCC[C@@H](n3ccc(N4CCOCC4)c4ccnc3-4)C2)c1 [I-58]
12,10 to 100 µM,NC(=O)C[C@H](NC(=O)c1cn[nH]c1-c1ccccc1C(N)=O)c1cccc(Cl)c1 [I-349]
13,< 10 µM,Cc1c(F)ccc(F)c1-c1cn(C)cc1C(=O)N[C@@H](CC(N)=O)c1cccc(Cl)c1 [I-924]
14,10 to 100 µM,C=CC(=O)NC1CCN(c2ccnc(N[C@@H]3CCCN(c4cccc(F)c4)C3)c2)CC1 [I-519]
15,10 to 100 µM,COC(=O)c1nc(N2CCC[C@@H](Nc3cc(N4CCOCC4)ccn3)C2)ccc1C [I-781]
16,< 10 µM,Cc1c(F)ccc(F)c1-c1c(C(=O)N[C@@H](CC(N)=O)c2cccc(Cl)c2)c[nH]c1C(=O)c1cccc(-c2ccccc2)c1 [I-702]
17,10 to 100 µM,C=CC(=O)N(C)CCCN(C)c1ccnc(N[C@@H]2CCCN(c3cccc(F)c3)C2)c1 [I-462]
18,< 10 µM,N#Cc1ccccc1-c1[nH]ncc1C(=O)N[C@@H](CC(N)=O)c1cccc(Cl)c1 [I-338]
19,10 to 100 µM,c1cc2ccc(N3CCC[C@@H](Nc4nccc(N5CCOCC5)n4)C3)cc2cn1 [I-57]
20,< 10 µM,Cc1ccc(F)c(C)c1-c1c(C(=O)N[C@@H](CC(N)=O)c2cccc(Cl)c2)c[nH]c1C(=O)COCCOCCOCCOCCOCCNC(=O)C[C@@H]1N=C(c2ccc(Cl)cc2)c2c(sc(C)c2C)-n2c(C)nnc21 [I-909]
21,10 to 100 µM,NC(=O)C[C@H](NC(=O)c1c[nH]nc1-c1ccc2[nH]cnc2c1)c1cccc(Cl)c1 [I-356]
22,10 to 100 µM,CN(c1ccccc1)c1ccnc(N[C@@H]2CCCN(c3cccc(F)c3)C2)c1 [I-614]
23,10 to 100 µM,C=CC(=O)NCCCCN1CCN(c2ccnc(N[C@@H]3CCCN(c4cccc(F)c4)C3)c2)CC1 [I-633]
24,10 to 100 µM,C=CC(=O)NCCCN1CCN(c2ccnc(N3CC[C@@H]4[C@H]3CCCN4c3cccc(F)c3)c2)CC1 [I-846]
25,< 10 µM,C[C@H]1CC[C@H](c2[nH]ncc2C(=O)N[C@@H](CC(N)=O)c2cccc(Cl)c2)CC1 [I-741]
26,10 to 100 µM,c1csc(-c2ccc(N3CCC[C@@H](Nc4cc(N5CCOCC5)ccn4)C3)cc2)c1 [I-695]
27,10 to 100 µM,NCc1cnc(N2CCCCC2)nc1N[C@@H]1CCCN(c2cccc(F)c2)C1 [I-1010]
28,< 10 µM,Cc1c(F)ccc(F)c1-c1c(C(=O)N[C@@H](CC(N)=O)c2cccc(Cl)c2)cn(C)c1C(=O)c1ccc(OCCOCCOCCOCCOCCOCCN)cc1 [I-1018]
29,< 10 µM,NC(=O)C[C@H](NC(=O)c1cn[nH]c1-c1c(F)cccc1C1CC1)c1cccc(Cl)c1 [I-590]
30,10 to 100 µM,N[C@@H](c1ccccc1)c1ccc(N2CCC[C@@H](Nc3cc(N4CCOCC4)ccn3)C2)cc1 [I-683]
